Measured values reported in patent US20230027361A1, “METTL3 MODULATORS” (priority 2019, published 2023).
Read-outs that look alike come from different tables or passages of the source.

Tests used:
[1] = target: METTL3/METTL14 (Homo sapiens, UniProt Q86U44); assay: METTL3-14 Standard Enzyme Assay (METTL3 biochemical assay)
In short: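 Tritium transfer from ³H-SAM (100 nM) to biotinylated RNA (100 nM) captured on streptavidin flashplates and counted by scintillation. Enzyme complex (2.5 nM) with compound, 5 min preincubation, 30 min reaction at ambient temperature, HEPES pH 7.5 buffer, stopped by excess unlabeled SAM.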

[2] = target: METTL1/WDR4 (Homo sapiens, UniProt Q9UBP6); assay: METTL1 Assay (METTL1 biochemical assay)
METTL1/WDR4, sequence (Q9UBP6 whole entry, species assumed): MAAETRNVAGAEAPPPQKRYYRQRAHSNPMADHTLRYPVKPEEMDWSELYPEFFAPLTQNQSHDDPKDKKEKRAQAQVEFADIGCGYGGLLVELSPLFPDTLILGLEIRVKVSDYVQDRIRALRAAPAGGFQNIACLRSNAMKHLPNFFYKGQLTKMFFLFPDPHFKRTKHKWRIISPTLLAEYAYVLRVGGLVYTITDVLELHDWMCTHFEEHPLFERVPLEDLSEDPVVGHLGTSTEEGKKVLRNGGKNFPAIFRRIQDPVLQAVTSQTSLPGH
METTL1/WDR4, sequence (P57081 whole entry partner, species assumed): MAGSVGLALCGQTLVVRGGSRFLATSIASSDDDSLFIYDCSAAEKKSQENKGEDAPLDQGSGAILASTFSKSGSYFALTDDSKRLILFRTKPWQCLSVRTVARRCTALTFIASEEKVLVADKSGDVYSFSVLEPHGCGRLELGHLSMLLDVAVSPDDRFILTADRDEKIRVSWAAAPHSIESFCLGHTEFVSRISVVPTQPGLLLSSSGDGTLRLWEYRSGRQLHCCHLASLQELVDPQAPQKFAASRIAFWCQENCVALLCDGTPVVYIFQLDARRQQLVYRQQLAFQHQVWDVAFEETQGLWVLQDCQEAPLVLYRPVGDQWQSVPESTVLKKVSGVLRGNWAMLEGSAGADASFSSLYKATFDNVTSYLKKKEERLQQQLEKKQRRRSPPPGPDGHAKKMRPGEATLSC
In short: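 Radiometric methyltransfer by METTL1/WDR4 (6.25 nM f.c., 5 min preincubation) at ambient temperature in HEPES pH 7.5, KCl, MgCl2, DTT; started with 25 nM 3′-biotinylated RNA and 60 nM 3H-SAM, run 20 min, quenched with 15 μM cold SAM. Product captured on streptavidin flashplates (2 h, 25° C), counted by scintillation.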

[3] = target: T1, METTL16 (Homo sapiens, UniProt Q86W50); assay: METTL16 Assay (METTL16 biochemical assay); conditions: read-out: METTL16 IC50
T1 sequence (Q86W50 1-562): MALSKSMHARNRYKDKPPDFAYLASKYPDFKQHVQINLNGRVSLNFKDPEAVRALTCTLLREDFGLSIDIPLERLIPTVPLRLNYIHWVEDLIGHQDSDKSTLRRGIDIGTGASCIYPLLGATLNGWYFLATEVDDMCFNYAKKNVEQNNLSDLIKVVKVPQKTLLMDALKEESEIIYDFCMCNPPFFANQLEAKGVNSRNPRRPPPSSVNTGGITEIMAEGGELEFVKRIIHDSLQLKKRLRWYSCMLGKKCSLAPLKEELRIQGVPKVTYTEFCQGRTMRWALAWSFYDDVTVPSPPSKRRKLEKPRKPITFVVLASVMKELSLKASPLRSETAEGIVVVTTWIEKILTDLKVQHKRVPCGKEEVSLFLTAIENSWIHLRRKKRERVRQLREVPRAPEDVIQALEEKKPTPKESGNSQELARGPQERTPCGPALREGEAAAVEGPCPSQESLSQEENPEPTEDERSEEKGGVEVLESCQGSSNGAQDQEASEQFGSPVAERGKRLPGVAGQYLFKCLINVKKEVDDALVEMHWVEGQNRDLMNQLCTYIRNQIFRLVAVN
Experimental: Assays were performed in a 25 μl-volume in 384-well V-bottom polypropylene microplates (Greiner Bio-One, cat. No. 781280) at ambient temperature. Optimized 1× assay buffer was 20 mM HEPES pH 7.5, 50 mM KCl, 1 mM DTT, 0.01% Tween, 0.01% BSG, 0.004 U/μl RNAseOUT (cat. No. 10777019, ThermoFisher Scientific, Waltham, Mass.). For compound screening METTL16 (final concentration, f.c.=100 nM) was added using a Multidrop Combi (ThermoFisher Scientific, Waltham, Mass.) and preincubated for 5 min. Reactions were started by adding 3′ biotinylated RNA ([…]-biotin) (f.c.=50 nM), 3H-SAM (f.c.=200 nM) and non-radiolabeled SAM (f.c.=800 nM) substrates. Reactions proceeded for 20 minutes and were quenched with excess non-radioactive SAM (f.c.=100 μM). The reactions were then transferred to streptavidin-coated flashplates and incubated for 2 hours at 25° C. Following two washing cycles with 0.1% Tween-20, the plates were sealed and read on a TopCount (PerkinElmer, Waltham, Mass.) plate-based scintillation counter. For determination of kinetic parameters, reaction times were optimized so that measurements were taken during the initial velocity phase of the reaction.

[4] = target: PRMT5-MEP50 (Homo sapiens, UniProt O14744); assay: PRMT5 Assay (PRMT5 biochemical assay)
PRMT5-MEP50, sequence (O14744 whole entry): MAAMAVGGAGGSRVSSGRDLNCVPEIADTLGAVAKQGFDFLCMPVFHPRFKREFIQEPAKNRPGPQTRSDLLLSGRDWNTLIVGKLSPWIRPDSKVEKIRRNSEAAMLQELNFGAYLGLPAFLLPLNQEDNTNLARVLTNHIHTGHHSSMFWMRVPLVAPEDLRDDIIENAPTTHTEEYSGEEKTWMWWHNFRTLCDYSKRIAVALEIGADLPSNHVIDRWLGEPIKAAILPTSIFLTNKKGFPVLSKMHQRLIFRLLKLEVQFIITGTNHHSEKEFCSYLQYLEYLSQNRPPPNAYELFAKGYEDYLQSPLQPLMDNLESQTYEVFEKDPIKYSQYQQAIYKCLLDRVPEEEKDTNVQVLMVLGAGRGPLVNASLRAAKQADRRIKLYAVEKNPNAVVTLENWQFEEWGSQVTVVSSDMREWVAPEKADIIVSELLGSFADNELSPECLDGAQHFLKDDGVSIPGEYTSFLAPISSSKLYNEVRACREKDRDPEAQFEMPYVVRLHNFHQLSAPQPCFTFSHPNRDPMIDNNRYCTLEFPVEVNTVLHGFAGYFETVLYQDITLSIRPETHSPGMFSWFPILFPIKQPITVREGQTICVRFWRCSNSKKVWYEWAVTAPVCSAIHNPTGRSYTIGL
PRMT5-MEP50, sequence (Q9BQA1 whole entry partner): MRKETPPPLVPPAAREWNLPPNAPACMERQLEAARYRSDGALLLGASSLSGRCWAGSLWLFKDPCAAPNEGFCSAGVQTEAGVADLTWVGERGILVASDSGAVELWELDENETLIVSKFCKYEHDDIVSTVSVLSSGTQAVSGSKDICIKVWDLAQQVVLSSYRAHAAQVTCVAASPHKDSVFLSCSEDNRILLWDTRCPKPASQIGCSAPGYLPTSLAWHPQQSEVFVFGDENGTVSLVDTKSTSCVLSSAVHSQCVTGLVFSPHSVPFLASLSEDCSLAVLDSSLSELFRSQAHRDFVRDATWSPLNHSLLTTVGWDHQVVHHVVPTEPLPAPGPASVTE
In short: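 Radiometric methyltransferase read-out: after 60 min reaction, excess unlabelled SAM (15 μM) stops turnover and biotinylated H4 peptide (100 nM) carrying 3H-methyl from 250 nM 3H-SAM is captured on streptavidin flashplates (2 h, 25° C) for scintillation counting. Enzyme, 2.5 nM PRMT5-MEP50, was preincubated 5 min with compound in pH 8.0 Tris buffer with DTT and Tween.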

[5] = test system: MOLM-13 cells; assay: MOLM-13 48 Hour Cell Proliferation Assay; assay type: cell-based; conditions: Homo sapiens
Experimental: MOLM-13 (DSMZ) cells were seeded at 1000 cells per well in a volume of 44 μL in a Falcon 384-well tissue culture treated clear bottom microplate in RPMI 1640 media containing 10% fetal bovine serum using a Multidrop Combi (ThermoFisher Scientific). Cells were incubated overnight at 37° C. in a humidified tissue culture incubator. The Mosquito® HTS Liquid Handler was used to make a compound/media intermediate plate by aliquoting 1 μL of compound from the initial compound dilution plate (concentrations ranging from 10.0 mM to 38.0 nM in 100% DMSO) into a V bottom 384-well screen matrix plate containing 49 μL of media containing the appropriate serum (50-fold dilution, 2% DMSO). The Apricot liquid handling system was used to transfer 6.2 μL compounds from the intermediate plate into the Falcon 384-well tissue culture plate containing 44 μL cells (10-point, 4-fold dilution spanning concentrations 25.0 μM to […], 0.25% DMSO final), and placed in a humidified tissue culture incubator at 37° C. After 48 hours, 25 μL of Cell Titer-Glo reagent (Promega) was added to each well using a Multidrop Combi. The plate was protected from light and placed on an IKA plate shaker for at 300 rpm for 10 minutes at room temperature. The plate was read on an EnVision plate reader (Perkin Elmer) using the Ultra Sensitive Luminescence protocol. Data analysis was performed by normalizing the raw luminescence units to an average of the positive control values for staurosporine (100% cell death) and the negative control values for DMSO (0% cell death). An IC50 was calculated using a 4-parameter logistic nonlinear regression model in GraphPad Prism.

[6] = test system: MOLM-13 cells; assay: MOLM-13 96 Hour Cell Proliferation Assay; assay type: cell-based; conditions: Homo sapiens
Experimental: MOLM-13 (DSMZ) cells were seeded at 600 cells per well in a volume of 44 μL in a Greiner Bio-One CELLSTAR™ 384 Well Polystyrene Cell Culture clear bottom microplate in RPMI 1640 media containing 10% fetal bovine serum using a Multidrop Combi (ThermoFisher Scientific). Cells were incubated overnight at 37° C. in a humidified tissue culture incubator. To prevent evaporation or to reduce edge effect, add 50 μL or more H2O to an empty plate, cover, and place on top of the cell plates. The Mosquito® HTS Liquid Handler was used to make a compound/media intermediate plate by aliquoting 1 μL of compound from the initial compound dilution plate (concentrations ranging from 10.0 mM to 38.0 nM in 100% DMSO) into Bio-One 384-well polypropylene conical bottom microplate containing 49 μL of media containing the appropriate serum (50-fold dilution, 2% DMSO, compound concentrations ranging from 200.0 μM and […]). The Apricot liquid handling system was used to transfer 6.2 μL compounds from the intermediate plate into the seeding plate containing 44 μL cells (8-fold dilution spanning concentrations 25.0 μM to […], 0.25% DMSO final), and placed in a humidified tissue culture incubator at 37° C. After 96 hours, 25 μL of Cell Titer-Glo reagent (Promega) was added to each well using an Integra liquid handling system. The plate was protected from light using TopSeal-A (Black) film over the entire plate, added White Bottom seal film on the bottom of the entire plate for a better reading on the Envision, and placed on an IKA plate shaker for at 300 rpm for 10 minutes at room temperature. The plate was read on an EnVision plate reader (Perkin Elmer) using the Ultra Sensitive Luminescence protocol. Data analysis was performed by normalizing the raw luminescence units to an average of the positive control values for staurosporine (100% cell death) and the negative control values for DMSO (0% cell death). An IC50 was calculated using a 4-parameter logistic nonlinear regression model in GraphPad Prism.

[7] = METTL3 biochemical assay, read-out: METTL3 IC50
[8] = read-out: METTL1 IC50, METTL1 biochemical assay
[9] = PRMT5 biochemical assay, read-out: PRMT5 IC50

METTL3/METTL14, sequence (Q86U44 whole entry, species assumed): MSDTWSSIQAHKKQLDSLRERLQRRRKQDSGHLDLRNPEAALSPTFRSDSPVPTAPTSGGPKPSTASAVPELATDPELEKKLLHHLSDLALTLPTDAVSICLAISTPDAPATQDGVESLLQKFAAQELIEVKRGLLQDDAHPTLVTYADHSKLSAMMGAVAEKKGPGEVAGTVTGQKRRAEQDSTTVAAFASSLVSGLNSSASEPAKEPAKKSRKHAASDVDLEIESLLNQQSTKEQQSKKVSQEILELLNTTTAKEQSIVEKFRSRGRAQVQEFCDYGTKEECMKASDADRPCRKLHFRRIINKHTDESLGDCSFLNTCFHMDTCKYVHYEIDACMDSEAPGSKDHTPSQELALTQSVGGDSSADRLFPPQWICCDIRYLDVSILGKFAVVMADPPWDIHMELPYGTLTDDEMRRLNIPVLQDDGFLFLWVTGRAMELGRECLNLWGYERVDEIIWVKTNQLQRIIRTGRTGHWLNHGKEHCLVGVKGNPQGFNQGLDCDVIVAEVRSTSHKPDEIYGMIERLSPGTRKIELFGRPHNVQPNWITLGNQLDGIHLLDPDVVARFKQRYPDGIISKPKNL
METTL3/METTL14, sequence (Q9HCE5 whole entry partner, species assumed): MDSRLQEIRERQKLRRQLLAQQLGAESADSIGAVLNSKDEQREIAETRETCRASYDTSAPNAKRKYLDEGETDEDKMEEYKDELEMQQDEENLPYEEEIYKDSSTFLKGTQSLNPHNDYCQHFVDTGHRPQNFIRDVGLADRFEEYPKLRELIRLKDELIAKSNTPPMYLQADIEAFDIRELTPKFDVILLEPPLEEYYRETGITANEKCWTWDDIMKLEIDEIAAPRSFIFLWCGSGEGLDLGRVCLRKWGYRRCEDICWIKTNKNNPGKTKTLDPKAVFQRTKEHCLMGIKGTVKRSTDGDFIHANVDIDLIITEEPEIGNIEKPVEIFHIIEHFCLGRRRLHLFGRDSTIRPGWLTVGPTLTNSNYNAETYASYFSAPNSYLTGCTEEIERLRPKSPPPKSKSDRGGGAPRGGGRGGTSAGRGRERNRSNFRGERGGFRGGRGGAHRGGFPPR

Row | Structure (SMILES) | IC50 [1, 7] [nM] | IC50 [3] [nM] | IC50 [4, 9] [nM] | IC50 [5] [µM] | other results
1 | CNc1ccc2ccc(OC[C@H]3O[C@@H](n4cc(Br)c5c(N)nc(N)nc54)[C@@H](F)[C@@H]3O)cc2n1 [I-25] | 100 to 1000 | > 1000 | 10 to 100 |  | IC50 [2, 8]: > 1000 nM
2 | Nc1cc(C2CC2)nc2cc(OC[C@H]3O[C@@H](n4cc(Br)c5c(N)ncnc54)[C@@H](F)[C@@H]3O)ccc12 [I-14] | 10 to 100 | > 1000 | 100 to 1000 |  | 
3 | CNc1ccc2ccc(OC[C@H]3O[C@@H](n4cc(-c5cnn(C)c5)c5c(N)ncnc54)[C@@H](F)[C@@H]3O)cc2n1 [I-11] |  | > 1000 |  |  | IC50 ([1]; read-out: METTL3 IC50, METTL3 biochemical assay): 10 to 100 nM; IC50 ([4]; read-out: PRMT5 IC50, PRMT5 biochemical assay): 100 to 1000 nM
4 | CNc1ccc2ccc(OC[C@H]3O[C@@H](n4ccc5c(N)nc(C(=O)OC)nc54)[C@@H](F)[C@@H]3O)cc2n1 [I-223] | > 1000 | > 1000 | > 1000 |  | IC50 [2]: > 1000 nM
5 | Nc1ncnc2c1c(CO)cn2[C@@H]1O[C@H](COc2ccc3ccc(N4CCC4)nc3c2)[C@@H](O)[C@@H]1F [I-163] | < 10 |  | > 1000 | 1 to 10 | IC50 ([6]; MOLM-13, 96 h): 1000 to 10000 nM
6 | Cc1cc(N)c2ccc(OC[C@H]3O[C@@H](n4cc(Br)c5c(N)ncnc54)[C@@H](F)[C@@H]3O)cc2n1 [I-27] | 10 to 100 | > 1000 | 100 to 1000 |  | 
7 | CNc1ccc2cc(OC[C@H]3O[C@@H](n4cc(Br)c5c(N)ncnc54)[C@H](O)[C@@H]3O)ccc2n1 [I-69] | 10 to 100 | > 1000 | 10 to 100 |  | IC50 ([2]; METTL1 biochemical assay, read-out: METTL1 IC50): > 1000 nM
8 | CCNc1ccc2ccc(CC[C@H]3O[C@@H](n4ccc5c(N)ncnc54)[C@H](O)[C@@H]3O)cc2n1 [I-90] | 10 to 100 | > 1000 | < 10 |  | 
9 | Nc1ccc2ccc(CC[C@H]3C[C@@H](n4cc(C5CCCC5)c5c(N)ncnc54)[C@H](O)[C@@H]3O)cc2n1 [I-60] | 10 to 100 |  | < 10 | 1 to 10 | IC50 [2, 8]: > 1000 nM; IC50 ([6]; MOLM-13, 96 h): < 1000 nM
10 | Nc1ncnc2c1ccn2[C@H]1C[C@H](O)[C@@H](COc2ccc3ccc(N4CCC4)nc3c2)O1 [I-165] | < 10 |  | > 1000 | > 10 | IC50 ([6]; MOLM-13, 96 h): 1000 to 10000 nM
11 | CCNc1ccc2ccc(OC[C@H]3C[C@@H](n4ccc5c(N)ncnc54)[C@H](O)[C@@H]3O)cc2n1 [I-81] | 10 to 100 | > 1000 | < 10 |  | 
12 | CNc1ccc2ccc(CC[C@H]3C[C@@H](n4ccc5c(N)ncnc54)[C@H](O)[C@@H]3O)cc2n1 [I-123] | < 10 |  | < 10 | > 10 | IC50 [2, 8]: > 1000 nM; IC50 ([6]; MOLM-13, 96 h): < 1000 nM
13 | Nc1ncnc2c1ccn2[C@H]1C[C@H](O)[C@@H](COc2ccc3ccc(NC4CC4)nc3c2)O1 [I-180] | 10 to 100 |  | 100 to 1000 | > 10 | IC50 ([6]; MOLM-13, 96 h): > 10000 nM
14 | CCc1cc(N)c2ccc(OC[C@H]3O[C@@H](n4cc(Br)c5c(N)ncnc54)[C@@H](F)[C@@H]3O)cc2n1 [I-18] | 10 to 100 | > 1000 | 100 to 1000 |  | 
15 | Nc1ncnc2c1c(-n1ccc(C(F)(F)F)n1)cn2[C@H]1C[C@H](O)[C@@H](COc2ccc3ccc(N4CCC4)nc3c2)O1 [I-178] |  |  |  | 1 to 10 | IC50 [1]: < 10 nM; IC50 [4]: > 1000 nM; IC50 [6]: 1000 to 10000 nM
16 | CNc1ccc2ccc(OC[C@H]3O[C@@H](n4cc(C5CCN(C)C5)c5c(N)ncnc54)[C@@H](F)[C@@H]3O)cc2n1 (some centres unmarked) [I-17] | 10 to 100 | > 1000 | 100 to 1000 |  | 
17 | Cc1cc(N)c2ccc(OC[C@H]3O[C@@H](n4cc(C5CCCC5)c5c(N)ncnc54)[C@H](O)[C@@H]3O)cc2n1 [I-16] | 10 to 100 | > 1000 | 10 to 100 |  | 
